Assays:
Format in all cases: biochemical
MKK4 = target: T1, MKK4 (Homo sapiens, UniProt P45985); test: 33PanQinase enzyme assay, MKK4; conditions: for IC50: assay 'IC50', read-out: Potency MKK4 (IC50)
T1 construct: purchased ProQinase GmbH, Freiburg, Germany (33PanQinase Assay Service)
T1 sequence (P45985 1-399): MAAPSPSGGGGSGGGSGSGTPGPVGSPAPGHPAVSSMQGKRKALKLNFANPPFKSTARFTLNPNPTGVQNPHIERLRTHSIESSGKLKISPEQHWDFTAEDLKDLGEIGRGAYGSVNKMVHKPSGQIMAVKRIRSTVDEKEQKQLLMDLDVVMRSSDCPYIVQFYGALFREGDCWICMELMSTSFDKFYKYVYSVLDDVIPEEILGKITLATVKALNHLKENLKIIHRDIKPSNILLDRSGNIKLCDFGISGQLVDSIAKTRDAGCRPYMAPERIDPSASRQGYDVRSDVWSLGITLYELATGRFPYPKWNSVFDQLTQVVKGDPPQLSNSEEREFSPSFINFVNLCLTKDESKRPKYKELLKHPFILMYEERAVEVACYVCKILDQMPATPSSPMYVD
Method: (§1) The kinase activities of the compounds of the invention were measured using the 33PanQinase® Assay Service provided by ProQinase GmbH, Freiburg, Germany. Details of the assay conditions are disclosed on the website of ProQinase (https://www.proginase.com/products-services-biochemical-assay-services/kinase-assays). In brief, all kinase assays were performed in 96-well FlashPlates™ from PerkinElmer (Boston, MA, USA) in a 50 μl reaction volume. The reaction cocktail was pipetted in four steps in the following order: • 20 μl of assay buffer (standard buffer) • 5 μl of ATP solution (in H2O) • 5 μl of test compound (in 10% DMSO) • 20 μl enzyme/subtrate mix
(§2) The reaction cocktails were incubated at 30° C. for 60 minutes. The reaction is stopped with 50 μl of 2% (v/v) H3PO4, plates were aspirated and washed two times with 200 μl 0.9% (w/v) NaCl. Incorporation of ^33Pi was determined with a microplate scintillation counter (Microbeta, Wallac).
(§3) All assays were performed with a BeckmanCoulter/SAGIAN™ Core System.
(§4) In case of single concentration assays, the potency of the test compound is expressed as % residual activity. […] The fitting method used was a least-squares fit.
Inhibition potency against MKK4 is categorized as follows:
Assay at single concentration (100 nM):

BRaf = target: T2, BRaf (Homo sapiens, UniProt P15056); test: 33PanQinase enzyme assay, BRaf; conditions: ratio IC50(BRaf)/IC50(MKK4)
T2 construct: purchased ProQinase GmbH, Freiburg, Germany (33PanQinase Assay Service)
Method: as §1, §2, §3, §4
(§5) Selectivity of test compounds against BRaf, JNK1 and MKK7, altogether denominated as off-targets was calculated by the ratio of IC50 (off-target)/IC50 (MKK4) and categorized as follows: […]

JNK1 = JNK1 (Homo sapiens, UniProt P45983); test: 33PanQinase enzyme assay, JNK1; set-up: purchased ProQinase GmbH, Freiburg, Germany (33PanQinase Assay Service); conditions: ratio IC50(JNK1)/IC50(MKK4)
Method: as §1, §2, §3, §4, §5

MKK7 = target: T3, MKK7 (Homo sapiens, UniProt O14733); test: 33PanQinase enzyme assay, MKK7; set-up: purchased ProQinase GmbH, Freiburg, Germany (33PanQinase Assay Service); conditions: ratio IC50(MKK7)/IC50(MKK4)
T3 sequence (O14733 1-419): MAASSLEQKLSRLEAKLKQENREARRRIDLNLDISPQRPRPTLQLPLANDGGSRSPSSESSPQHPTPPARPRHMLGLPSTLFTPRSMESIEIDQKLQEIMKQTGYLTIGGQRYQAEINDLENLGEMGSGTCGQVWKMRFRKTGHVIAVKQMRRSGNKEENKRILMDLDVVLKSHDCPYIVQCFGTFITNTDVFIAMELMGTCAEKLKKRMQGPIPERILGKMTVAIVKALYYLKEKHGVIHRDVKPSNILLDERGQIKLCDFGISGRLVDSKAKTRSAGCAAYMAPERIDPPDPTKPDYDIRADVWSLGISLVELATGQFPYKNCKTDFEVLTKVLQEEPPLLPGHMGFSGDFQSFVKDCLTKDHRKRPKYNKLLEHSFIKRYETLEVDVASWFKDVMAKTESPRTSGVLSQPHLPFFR
Method: as §1, §2, §3, §4, §5

T2 sequence (P15056 whole entry, species assumed): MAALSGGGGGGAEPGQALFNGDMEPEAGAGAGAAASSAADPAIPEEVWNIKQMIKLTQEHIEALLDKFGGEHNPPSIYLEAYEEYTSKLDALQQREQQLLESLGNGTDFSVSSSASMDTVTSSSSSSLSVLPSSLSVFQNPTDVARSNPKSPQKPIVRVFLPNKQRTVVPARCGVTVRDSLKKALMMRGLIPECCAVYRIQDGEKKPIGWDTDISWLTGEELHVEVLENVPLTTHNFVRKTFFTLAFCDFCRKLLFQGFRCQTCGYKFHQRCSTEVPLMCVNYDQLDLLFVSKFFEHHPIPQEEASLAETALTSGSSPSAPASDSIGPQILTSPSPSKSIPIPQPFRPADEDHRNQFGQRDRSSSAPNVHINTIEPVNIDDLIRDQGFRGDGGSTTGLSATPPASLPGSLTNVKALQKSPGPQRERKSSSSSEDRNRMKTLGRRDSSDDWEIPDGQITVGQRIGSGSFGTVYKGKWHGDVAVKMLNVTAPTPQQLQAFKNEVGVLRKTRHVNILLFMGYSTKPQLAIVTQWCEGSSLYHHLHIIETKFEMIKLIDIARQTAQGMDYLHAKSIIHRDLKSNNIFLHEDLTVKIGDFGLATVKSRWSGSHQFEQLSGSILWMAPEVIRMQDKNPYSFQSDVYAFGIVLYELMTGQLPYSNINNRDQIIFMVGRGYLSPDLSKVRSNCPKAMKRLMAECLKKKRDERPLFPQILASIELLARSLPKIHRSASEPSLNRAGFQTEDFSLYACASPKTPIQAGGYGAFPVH
Chain of JNK1 (P45983 whole entry): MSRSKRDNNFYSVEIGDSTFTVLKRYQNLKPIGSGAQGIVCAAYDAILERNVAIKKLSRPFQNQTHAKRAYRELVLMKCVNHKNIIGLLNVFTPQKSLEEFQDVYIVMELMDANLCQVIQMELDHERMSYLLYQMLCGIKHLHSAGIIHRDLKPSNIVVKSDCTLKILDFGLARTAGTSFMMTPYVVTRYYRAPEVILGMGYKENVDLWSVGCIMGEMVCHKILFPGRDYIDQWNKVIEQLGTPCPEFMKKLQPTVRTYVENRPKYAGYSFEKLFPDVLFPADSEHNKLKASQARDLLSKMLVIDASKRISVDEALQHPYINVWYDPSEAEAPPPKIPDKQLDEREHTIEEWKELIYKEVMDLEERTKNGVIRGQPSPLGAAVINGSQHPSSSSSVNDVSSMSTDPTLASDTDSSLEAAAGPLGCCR

| SMILES | IC50 (MKK4) [µM] | Selectivity Braf, IC50(off-target)/IC50(MKK4) (BRaf) | Selectivity JNK1, IC50(off-target)/IC50(MKK4) (JNK1) | Selectivity IVIKK7, IC50(off-target)/IC50(MKK4) (MKK7) | remaining activity at 0.1 µM (MKK4; single concentration 100 nM, read-out: Potency MKK4 (residual activity, assay at single concentration)) [%] |
| --- | --- | --- | --- | --- | --- |
| CCCS(=O)(=O)Nc1ccc(F)c(C(=O)c2c[nH]c3ncc(-c4ccc(SC)cc4)cc23)c1F [Example 55] | 0.1 to 1 | ◯ (3 ≥ IC50(off-target)/IC50(MKK4)) | + (10 ≥ IC50(off-target)/IC50(MKK4) > 3) | +++ (IC50(off-target)/IC50(MKK4) > 100) | – |
| CCCS(=O)(=O)Nc1ccc(F)c(C(=O)c2c[nH]c3ncc(-c4cscn4)cc23)c1F [Example 57] | 0.1 to 1 | ◯ (3 ≥ IC50(off-target)/IC50(MKK4)) | ◯ (3 ≥ IC50(off-target)/IC50(MKK4)) | +++ (IC50(off-target)/IC50(MKK4) > 100) | – |
| CCCS(=O)(=O)Nc1ccc(F)c(C(=O)c2c[nH]c3ncc(N4CCOCC4)cc23)c1F [Example 70, N-(2,4-difluoro-3-(5-morpholino-1H-pyrrolo[2,3-b]pyridine-3-carbonyl)phenyl)propane-1-sulfonamide] | 0.1 to 1 | ◯ (3 ≥ IC50(off-target)/IC50(MKK4)) | ++ (100 ≥ IC50(off-target)/IC50(MKK4) > 10) | +++ (IC50(off-target)/IC50(MKK4) > 100) | – |
| CCCS(=O)(=O)Nc1ccc(F)c(C(=O)c2c[nH]c3ncc(N4CCNCC4)cc23)c1F [Example 71, N-(2,4-difluoro-3-(5-(piperazin-1-yl)-1H-pyrrolo[2,3-b]pyridine-3-carbonyl)phenyl)propane-1-sulfonamide] | 1 to 10 | ◯ (3 ≥ IC50(off-target)/IC50(MKK4)) | ◯ (3 ≥ IC50(off-target)/IC50(MKK4)) | ++ (100 ≥ IC50(off-target)/IC50(MKK4) > 10) | – |
| CCCS(=O)(=O)Nc1ccc(F)c(C(=O)c2c[nH]c3ncc(-c4ccc(S(=O)(=O)C(F)F)cc4)cc23)c1F [Example 74, N-(3-(5-(4-((difluoromethyl)sulfonyl)phenyl)-1H-pyrrolo[2,3-b]pyridine-3-carbonyl)-2,4-difluorophenyl)propane-1-sulfonamide] | 0.1 to 1 | ◯ (3 ≥ IC50(off-target)/IC50(MKK4)) | + (10 ≥ IC50(off-target)/IC50(MKK4) > 3) | +++ (IC50(off-target)/IC50(MKK4) > 100) | – |
| CCCS(=O)(=O)Nc1ccc(F)c(C(=O)c2c[nH]c3ncc(-c4ccc([S+](C)[O-])cc4)cc23)c1F (centres unmarked) [Example 75, N-(2,4-difluoro-3-(5-(4-(methylsulfinyl)phenyl)-1H-pyrrolo[2,3-b]pyridine-3-carbonyl)phenyl)propane-1-sulfonamide] | 0.1 to 1 | ◯ (3 ≥ IC50(off-target)/IC50(MKK4)) | + (10 ≥ IC50(off-target)/IC50(MKK4) > 3) | +++ (IC50(off-target)/IC50(MKK4) > 100) | – |
| CCCS(=O)(=O)Nc1ccc(F)c(C(=O)c2c[nH]c3ncc(-c4ccc(SCCN)cc4)cc23)c1F [Example 76, N-(3-(5-(4-((2-aminoethyl)thio)phenyl)-1H-pyrrolo[2,3-b]pyridine-3-carbonyl)-2,4-difluorophenyl)propane-1-sulfonamide] | 0.1 to 1 | ◯ (3 ≥ IC50(off-target)/IC50(MKK4)) | + (10 ≥ IC50(off-target)/IC50(MKK4) > 3) | +++ (IC50(off-target)/IC50(MKK4) > 100) | – |
| CCCS(=O)(=O)Nc1ccc(F)c(C(=O)c2c[nH]c3ncc(-c4ccc(SC(F)(F)F)cc4)cc23)c1F [Example 78, N-(2,4-difluoro-3-(5-(4-((trifluoromethyl)thio)phenyl)-1H-pyrrolo[2,3-b]pyridine-3-carbonyl)phenyl)propane-1-sulfonamide] | 0.1 to 1 | ◯ (3 ≥ IC50(off-target)/IC50(MKK4)) | + (10 ≥ IC50(off-target)/IC50(MKK4) > 3) | +++ (IC50(off-target)/IC50(MKK4) > 100) | – |
| O=C(c1c(F)ccc(NS(=O)(=O)CCC(F)(F)F)c1F)c1c[nH]c2ncc(-c3ccc(N4CCSCC4)nc3)cc12 [Example 80, N-(2,4-difluoro-3-(5-(6-thiomorpholinopyridin-3-yl)-1H-pyrrolo[2,3-b]pyridine-3-carbonyl)phenyl)-3,3,3-trifluoropropane-1-sulfonamide] | < 0.1 | ++ (100 ≥ IC50(off-target)/IC50(MKK4) > 10) | ++ (100 ≥ IC50(off-target)/IC50(MKK4) > 10) | +++ (IC50(off-target)/IC50(MKK4) > 100) | – |
| CCCS(=O)(=O)Nc1ccc(F)c(C(=O)c2c[nH]c3ncc(-c4cnccn4)cc23)c1F [Example 89, N-(2,4-difluoro-3-(5-(pyrazin-2-yl)-1H-pyrrolo[2,3-b]pyridine-3-carbonyl)phenyl)propane-1-sulfonamide] | 1 to 10 | ◯ (3 ≥ IC50(off-target)/IC50(MKK4)) | ◯ (3 ≥ IC50(off-target)/IC50(MKK4)) | ++ (100 ≥ IC50(off-target)/IC50(MKK4) > 10) | – |

Next, values leading:

| IC50 (MKK4) [µM] | Selectivity Braf, IC50(off-target)/IC50(MKK4) (BRaf) | Selectivity JNK1, IC50(off-target)/IC50(MKK4) (JNK1) | Selectivity IVIKK7, IC50(off-target)/IC50(MKK4) (MKK7) | remaining activity at 0.1 µM (MKK4; single concentration 100 nM, read-out: Potency MKK4 (residual activity, assay at single concentration)) [%] | SMILES |
| --- | --- | --- | --- | --- | --- |
| 0.1 to 1 | ◯ (3 ≥ IC50(off-target)/IC50(MKK4)) | ◯ (3 ≥ IC50(off-target)/IC50(MKK4)) | +++ (IC50(off-target)/IC50(MKK4) > 100) | – | CCCS(=O)(=O)Nc1ccc(F)c(C(=O)c2c[nH]c3ncc(-c4ccc(S(C)(=O)=O)cc4)cc23)c1F [Example 54] |
| 0.1 to 1 | ◯ (3 ≥ IC50(off-target)/IC50(MKK4)) | ◯ (3 ≥ IC50(off-target)/IC50(MKK4)) | +++ (IC50(off-target)/IC50(MKK4) > 100) | – | CCCS(=O)(=O)Nc1ccc(F)c(C(=O)c2c[nH]c3ncc(-c4ccoc4)cc23)c1F [Example 56] |
| – | – | – | – | 50 to 70 | CCCS(=O)(=O)Nc1ccc(F)c(C(=O)c2c[nH]c3ncc(-c4ccc(S(N)(=O)=O)cc4)cc23)c1F [Example 96, 4-(3-(2,6-difluoro-3-(propylsulfonamido)benzoyl)-pyrrolo[2,3-b]pyridin-5-yl)benzenesulfonamide] |
| 0.1 to 1 | – | – | – | – | CCCS(=O)(=O)Nc1ccc(F)c(C(=O)c2c[nH]c3ncc(-c4ccc(N)cc4)cc23)c1F [Example 121, N-(3-(5-(4-aminophenyl)-1H-pyrrolo[2,3-b]pyridine-3-carbonyl)-2,4-difluorophenyl)propane-1-sulfonamide] |

Reference: patent publication US11912701B2, “Protein kinase inhibitors for promoting liver regeneration or reducing or preventing hepatocyte death” (HEPAREGENIX GMBH, priority 2018, dated 2024)
